Test results reported in PMC10743086, “Immunofluorescence-Based Assay for High-Throughput Analysis of Multidrug Resistance Markers in Non-Small Cell Lung Carcinoma Patient-Derived Cells” (Diagnostics, 2023).

What was measured:
Assay type in all cases: cell-based, human
[1] = tested on: ABCB1 expression in cancer cells (CK8/18+); assay: Immunofluorescence assay of ABCB1 expression in patient-derived NSCLC cultures; details: 7 days
Description: (§1) Tissue samples were collected during surgery, and the NSCLC diagnosis, histological grade, stage, necrosis, and lymph node invasion status were determined by histopathological analysis. […] The surgical specimens were placed in a sterile tube containing antibiotic-antimycotic solution (Sigma-Aldrich Chemie GmbH, Taufkirchen, Germany) and immediately transported to the research laboratory for further processing.
(§2) Upon arrival, the tissue was manually chopped with a surgical blade in a Petri dish under sterile conditions. The samples were cut into 3–5 mm pieces and further dissociated using the Tumor Dissociation Kit (Miltenyi Biotec, Bergisch Gladbach, Germany). The Tumor Dissociation Kit was used to dissociate the cells from the tumor tissue according to the manufacturer’s instructions. The samples were incubated in a 37 °C orbital shaker (KS 4000 ic control, IKA, Königswinter, Germany) at 300 rpm for 90 min. After incubation, the dissociated tissue was placed in DMEM/Ham’s F12 (1:3 ratio) growth medium supplemented with 5% fetal bovine serum (Corning, NY, USA), antibiotic-antimycotic solution, 4 µg/mL hydrocortisone (Sigma-Aldrich Chemie GmbH, Taufkirchen, Germany), 1 µg/mL insulin (Sigma-Aldrich Chemie GmbH, Taufkirchen, Germany), 10 ng/mL epidermal growth factor (BioLegend, San Diego, CA, USA), and 24 µg/mL adenine (Sigma-Aldrich Chemie GmbH, Taufkirchen, Germany). The DMEM and Ham’s F12 growth media were purchased from Sigma-Aldrich Chemie GmbH (Taufkirchen, Germany).
(§3) The dissociated tissue was cultured in T-25 cell culture flasks until cell attachment was observed before the medium was replaced. If no cell attachment was achieved within 7 days, the sample was discarded. Successful patient-derived cultures were maintained at 37 °C in a humidified atmosphere with 5% CO2 and grown to confluence before undergoing further experiments. […] Partial trypsinization was performed by detaching the fibroblast-like cells with 1 mL of 0.05% trypsin for 1 min at 37 °C, followed by 2 min at room temperature (RT).
(§4) Vinorelbine and pemetrexed were purchased from Selleckchem (Houston, TX, USA). Carboplatin, cisplatin, docetaxel, etoposide, gemcitabine, gefitinib, and paclitaxel were purchased from Sigma-Aldrich Chemie GmbH (Taufkirchen, Germany). The cisplatin, carboplatin, and gemcitabine were dissolved in sterile water, while the etoposide, docetaxel, vinorelbine, paclitaxel, gefitinib, and pemetrexed were dissolved in DMSO and stored at −20 °C. Before treatment, all the stock solutions were freshly diluted in sterile water.
(§5) The primary cells were seeded in black, clear bottom 384-well cell culture microplates (Thermo Fisher Scientific, Waltham, MA, USA) in 50 µL of cell growth medium at a density of 1000 cells per well. The compounds were administered 72 h after seeding. The treatment lasted 7 days.
(§6) The immunofluorescence assay for the quantification of MDR markers was optimized to distinguish cancer cells from stromal cells using a cytokeratin 8/18 (CK8/18) antibody cocktail. The cells were fixed with 4% paraformaldehyde for 20 min at RT and washed three times with PBS using the Wellwash Versa microplate washer (Thermo Fisher Scientific, Waltham, MA, USA). The cells were then blocked with 2% bovine serum albumin (BSA) in PBS for 1 h at RT. […] Co-immunostaining with antibodies against MDR markers was performed to detect the presence of ABCB1, ABCC1, and ABCG2 in both the cancer and stromal cells. […] The secondary antibodies were incubated with the cells at RT for 2 h in the dark. […] Finally, the cells were washed three times with PBS and stored at 4 °C in the dark before imaging.

NCI-H460 cells = assay: Cytotoxicity by immunofluorescence cell scoring (cell counts), NSCLC cell line; details: Homo sapiens, NCI-H460, 24 h, 24 h treatment
Description: as §4
(§7) The compounds were administered 48 h after seeding. The treatment lasted 24 h.
as §6
(§8) The fluorescently labeled cells were imaged using the ImageXpress Pico Automated Cell Imaging System (Molecular Devices, San Jose, CA, USA) with a 4x objective after determining the appropriate exposure time for each illumination filter. Analysis of the obtained images was performed using CellReporterXpress software v. 2.8.2.669 (Molecular Devices). The cytotoxicity of the compounds was determined using the Cell Scoring Analysis Protocol. […] Expression of MDR markers was determined using the Multi-Wavelength Cell Scoring Analysis Protocol.

[2] = tested on: ABCC1 expression in non-cancer cells (CK8/18-); assay: Immunofluorescence assay of ABCC1 expression in patient-derived NSCLC cultures, non-cancer cells; details: sample TR58, chemotherapeutics, 7 days
Description: as §1, §2, §3, §4, §5, §6

MRC-5 cells = assay: Cytotoxicity by immunofluorescence cell scoring (cell counts), normal fibroblasts; details: Homo sapiens, 24 h treatment
Description: as §4, §7, §6, §8

[3] = tested on: ABCG2 expression in non-cancer cells (CK8/18-); assay: Immunofluorescence assay of ABCG2 expression in patient-derived NSCLC cultures, non-cancer cells; details: sample TR65, chemotherapeutics, 7 days
Description: as §1
Upon arrival, the tissue was manually chopped with a surgical blade in a Petri dish under sterile conditions. The samples were cut into 3–5 mm pieces and further dissociated using the Tumor Dissociation Kit (Miltenyi Biotec, Bergisch Gladbach, Germany). The Tumor Dissociation Kit was used to dissociate the cells from the tumor tissue according to the manufacturer’s instructions. The samples were incubated in a 37 °C orbital shaker (KS 4000 ic control, IKA, Königswinter, Germany) at 300 rpm for 90 min. […]
The immunofluorescence assay for the quantification of MDR markers was optimized to distinguish cancer cells from stromal cells using a cytokeratin 8/18 (CK8/18) antibody cocktail. […]

[4] = culture TR58, cancer cells (CK8/18+)
[5] = culture TR64, cancer cells (CK8/18+)
[6] = culture TR65, cancer cells (CK8/18+)
[7] = culture TR84, cancer cells (CK8/18+)
[8] = culture TR87, cancer cells (CK8/18+)
[9] = NCI-H460 (co-culture with MRC-5)
[10] = MRC5, 24 h, MRC-5 (co-culture with NCI-H460)
[11] = MRC5, 24 h, MRC-5 (co-culture with NCI-H460/R)

Structure (SMILES) | ABCB1 Expression [1, 4] | ABCB1 Expression [1, 5] | ABCB1 Expression [1, 6] | ABCB1 Expression [1, 7] | ABCB1 Expression [1, 8] | IC50 (NCI-H460 cells; [9]) | IC50 (NCI-H460 cells; NCI-H460 monoculture) | ABCC1 expression in CK8/18− cells [2] | IC50 (MRC-5 cells; [10]) | IC50 (MRC-5 cells; [11]) | IC50 (MRC-5 cells; MRC5, 24 h, MRC-5 monoculture) | ABCG2 expression in CK8/18− cells [3] | IC50 (MRC-5 cells; MRC5, MRC-5 (co-culture with NCI-H460/R))
Nc1ccn([C@@H]2O[C@H](CO)[C@@H](O)C2(F)F)c(=O)n1 [Gemcitabine, gemcitabine] | no change | increase (An increase in ABCB1, ABCC1, or ABCG2 expression of at least 20% at a minimum of one concentration is shown in the table.) | increase (An increase in ABCB1, ABCC1, or ABCG2 expression of at least 20% at a minimum of one concentration is shown in the table.) | increase (An increase in ABCB1, ABCC1, or ABCG2 expression of at least 20% at a minimum of one concentration is shown in the table.) | increase (An increase in ABCB1, ABCC1, or ABCG2 expression of at least 20% at a minimum of one concentration is shown in the table.) | 34.6 µM | 41.6 µM | elevated | > 100 µM | > 100 µM | > 100 µM | elevated | 
CC(=O)O[C@H]1C(=O)[C@@]2(C)[C@H]([C@H](OC(=O)c3ccccc3)[C@]3(O)C[C@H](OC(=O)[C@H](O)[C@@H](NC(=O)c4ccccc4)c4ccccc4)C(C)=C1C3(C)C)[C@]1(OC(C)=O)CO[C@@H]1C[C@@H]2O [Paclitaxel, paclitaxel] | increase (An increase in ABCB1, ABCC1, or ABCG2 expression of at least 20% at a minimum of one concentration is shown in the table.) | increase (An increase in ABCB1, ABCC1, or ABCG2 expression of at least 20% at a minimum of one concentration is shown in the table.) | increase (An increase in ABCB1, ABCC1, or ABCG2 expression of at least 20% at a minimum of one concentration is shown in the table.) | increase (An increase in ABCB1, ABCC1, or ABCG2 expression of at least 20% at a minimum of one concentration is shown in the table.) | increase (An increase in ABCB1, ABCC1, or ABCG2 expression of at least 20% at a minimum of one concentration is shown in the table.) | 0.339 µM | 0.381 µM | elevated | > 5 µM | > 5 µM | > 5 µM |  | 
Nc1nc2[nH]cc(CCc3ccc(C(=O)N[C@@H](CCC(=O)O)C(=O)O)cc3)c2c(=O)[nH]1 [Pemetrexed, pemetrexed] | no change | no change | no change | increase (An increase in ABCB1, ABCC1, or ABCG2 expression of at least 20% at a minimum of one concentration is shown in the table.) | increase (An increase in ABCB1, ABCC1, or ABCG2 expression of at least 20% at a minimum of one concentration is shown in the table.) | > 300 µM | > 300 µM |  | > 300 µM |  | > 300 µM |  | > 300 µM
CCC1=C[C@@H]2CN(C1)Cc1c([nH]c3ccccc13)[C@@](C(=O)OC)(c1cc3c(cc1OC)N(C)[C@H]1[C@@](O)(C(=O)OC)[C@H](OC(C)=O)[C@]4(CC)C=CCN5CC[C@]31[C@@H]54)C2 [Vinorelbine] | no change | increase (An increase in ABCB1, ABCC1, or ABCG2 expression of at least 20% at a minimum of one concentration is shown in the table.) | increase (An increase in ABCB1, ABCC1, or ABCG2 expression of at least 20% at a minimum of one concentration is shown in the table.) | increase (An increase in ABCB1, ABCC1, or ABCG2 expression of at least 20% at a minimum of one concentration is shown in the table.) | increase (An increase in ABCB1, ABCC1, or ABCG2 expression of at least 20% at a minimum of one concentration is shown in the table.) | 0.0333 µM | 0.0366 µM |  | 0.477 µM | > 1 µM | > 1 µM |  | 
